Patent US20210054106A1, “OMNIPHILIC NANO-VESICLES BASED ON MODIFIED POLYSACCHARIDES FOR DELIVERY OF ACTIVE AGENTS” (THE STATE OF ISRAEL, MINISTRY OF AGRICULTURE & RURAL …, priority 2018, published 2021)

Assay: Franz diffusion cell model, RB permeation
Type: in vitro ADME
Settings: sunflower oil donor, PBS pH 7.4 receptor, 32 °C, up to 16 h

## CCN(CC)c1ccc2c(-c3ccccc3C(=O)O)c3ccc(=[N+](CC)CC)cc-3oc2c1.[Cl-] [RB, Rhodamine B]
  RB permeation across lipophilic membrane into aqueous phase: scarcely permeates
